Values joined by “and” are separate entries in the source; they are usually repeats but may differ in a detail not shown here. Equal values may be shown once. Marks after values point to notes of the source that are not given here.
Columns and labels:
Assay type in all cases: in vivo, Sprague Dawley rats
[1] = tested on: rats on 60% fructose diet; assay: Measurement of urinary nitric oxide (nitrate/nitrite); conditions: FIG. 5
Source text: (§1) Male Sprague Dawley rats (150-200 g, Charles River Inc., Wilmington, Mass.) were placed on a standard natural ingredient diet (catalog #7912, Harlan, Wis.) for a five day run-in period with collection of basal blood and urine. Rats were then divided into 5 groups with similar body weight and baseline blood chemistry (n=8 each group).
(§2) Rats were weighed weekly and housed separately in metabolic cages for overnight collection of urine (over 18 hrs) with free access to water and no food on weeks 4, 14 and 20. Four hour fasting serum was also collected from the tail vein within the same week of urine collection. At the end of week 20, rats were sacrificed.
Urine was determined NO by using the nitrate/nitrite colorimetric assay kit (Cayman Chemical Company, MI). The kit measures NO reaction products, total nitrate and nitrite concentrations with a modified two-step Griess reaction.

[2] = tested on: rats on 60% fructose diet; assay: Insulin tolerance test (ITT); conditions: week 18, 0.75 U/kg insulin i.p., FIG. 4
Method: as §1
At week 18, the ITT was performed on animals fasted for 16 hours by administering 0.75 U/kg recombinant human insulin (Novolin; Novo Nordisk, Princeton, N.J.) via intraperitoneal injection. Blood glucose was determined on tail blood via hand-held blood glucose monitor (OneTouch, Johnson & Johnson) at 5 points; before insulin injection, and at 15, 30, 45 and 60 minutes after insulin injection.

[3] = tested on: rats on 60% fructose diet; assay: Biochemical measurements of serum and urine in fructose-fed rats; conditions: for serum uric acid (change in words): FIG. 2A; for serum uric acid (change in words) / serum triglycerides (change in words): weeks 4, 14, 20; for serum triglycerides (change in words): FIG. 2D
Method: as §1
(§3) Group 3 (F+HCTZ): 60% fructose diet plus hydrochlorothiazide (HCTZ, Sigma-Aldrich, St. Louis, Mo.) 10 mg/kg/day dissolved in drinking water
(§4) We monitored serum K^+ and increased the concentration of KCL at week 5 (1.5% KCL), week 15 (1.75% KCL) and week 17 (2% KCL) to maintain normal k^+ level in serum through the whole study.
(§5) Group 5 (F+HCTZ+Allopurinol): 60% fructose diet plus the same dose of HCTZ and allopurinol 150 mg/L dissolved in drinking water
as §2
Serum and urine K^+ concentrations were determined with the atomic absorption spectrophotometer (Perkin-Elmer 306). Routine chemistries (including serum glucose, cholesterol, triglycerides, blood urea nitrogen (BUN), sodium, chloride, bicarbonate (HCO3^−) and magnesium (Mg^++); serum and urine creatinine (Cr), uric acid and urine protein concentration) were measured using an autoanalyzer (VetAce, Alfa Wassermann, Inc., West Caldwell, N.J.).

[4] = tested on: rats on 60% fructose diet; assay: Tail cuff systolic blood pressure measurement in fructose-fed rats; conditions: for systolic blood pressure (SBP): conscious rats, mean±SD
Method: as §1, §3, §4, §5
Systolic blood pressure (SBP) measurement was performed in conscious rats with the use of a tail-cuff sphygmomanometer (Visitech BP2000, Visitech Systems, Apex, N.C.) at weeks 4 and 16. After three time periods of preconditioning, rats were placed in prewarmed chambers (37° C.) for 10-15 min, the pressure and pulse were measured by an automatic tail-cuff inflater and a built-in transducer. The mean of three stable BP readings was used.

[5] = tested on: rats on 60% fructose diet; assay: Serum insulin and Quantitative Insulin Sensitivity Check Index (QUICKI); conditions: for QUICKI / insulin sensitivity (in words): week 14, FIG. 3
Method: as §1
Fasting serum glucose and insulin were obtained at week 14 and used to calculate the QUICKI value. Serum insulin was determined by using the rat insulin ELISA kit (Crystal Chem, Chicago, Ill.) which can detect serum insulin in the range of 156-10,000 pg/ml and has the 3.5% intra-assay and 6.3% inter-assay precision. QUICKI is a mathematical model based on log-transformed fasting plasma glucose and insulin values by equal 1/(log [glucose]+log [insulin]). QUICKI predicts insulin sensitivity with lower values representing more insulin resistance.

Structure (SMILES): NS(=O)(=O)c1cc2c(cc1Cl)NCNS2(=O)=O [F+HCTZ, hydrochlorothiazide]
- urine nitrate/nitrite excretion (in words) [1]: even lower nitrite excretion
- urine nitrate/nitrite excretion (in words) ([1]; listed as Hydrochlorothiazide): more reduction of urine nitrate and nitrite
- blood glucose response to intraperitoneal insulin in ITT (in words) [2]: maintained elevated serum glucose in response to insulin
- blood glucose response to intraperitoneal insulin in ITT (in words) ([2]; listed as hydrochlorothiazide): no change of blood glucose
- serum uric acid (change in words) [3]: greater hyperuricemia
- serum uric acid (change in words) ([3]; listed as Hydrochlorothiazide): more hyperuricemia
- serum glucose (change in words) ([3]; FIG. 2B, weeks 14 and 20): hyperglycemia
- serum cholesterol (change in words) ([3]; FIG. 2C): numerical higher
- serum triglycerides (change in words) [3]: higher in the F+HCTZ group but did not reach statistical significance
- serum triglycerides (change in words) ([3]; listed as hydrochlorothiazide): numerical higher
- Uric acid clearance ([3]; Table 1, mean±SD): 0.08 ± 0.03 ^& ml/min
- Urine protein/Cr ([3]; Table 1, mean±SD): 2.53 ± 2.3
- Urine uric acid ([3]; Table 1, mean±SD): 2.93 ± 1.0 ^& mg/day
- Cr ([3]; Table 1, serum, week 20, mean±SD): 0.46 ± 0.11 mg/dL
- BUN ([3]; rat, in vivo): 26.6 ± 14 *^, & mg/dL
- Serum K^+ ([3]; rat, in vivo): 4.0 ± 0.1 *^, &, # mEq/L
- Serum Mg^++ ([3]; rat, in vivo): 1.15 ± 0.1*^, & mEq/L
- serum HCO3^− ([3]; rat, in vivo): 24.7±1.1 mEq/L
- serum K^+ (in words) ([3]; rat, in vivo): significantly lower
- serum uric acid ([3]; week 14 (implied by sentence), mean±SD): 2.69 ± 0.47 mg/dL
- serum glucose ([3]; week 14, 4 h fasting serum, mean±SD): 176 ± 13.3 mg/dL
- serum triglycerides ([3]; week 14, mean±SD): 492 ± 154 mg/dL
- serum glucose ([3]; week 20, 4 h fasting serum, mean±SD): 186 ± 21.9 mg/dL and 186 ± 22 mg/dL
- serum glucose ([3]; week 20, mean±SD): 186 ± 22 mg/dL
- serum triglycerides ([3]; week 20, mean±SD): 489 ± 178 mg/dL
- serum uric acid ([3]; week 20, mean±SD): 2.76 ± 0.59 mg/dL
- effect on systolic blood pressure (in words) ([4]; FIG. 1, weeks 4 and 16): reduced the systolic blood pressure
- systolic blood pressure (SBP) ([4]; week 4, tail cuff): 129±4.6 mmHg
- systolic blood pressure (SBP) ([4]; week 16, tail cuff): 136±3.7 mmHg
- QUICKI / insulin sensitivity (in words) ([5]; listed as HCTZ): significantly lower
- QUICKI / insulin sensitivity (in words) ([5]; listed as hydrochlorothiazide): significant lower insulin sensitivity
- serum insulin concentration ([5]; week 14, rat insulin ELISA, mean±SD): 3449 ± 1200 pg/mL

— patent US20130109680A1, “METHODS AND COMPOSITIONS FOR AMELIORATING THIAZIDE INDUCED […]” (University of Florida Research Foundation, Inc., priority 2007, published 2013)
